Data set [1] concerns the target T1, MAGL (Homo sapiens, UniProt Q99685).
T1 construct: purchased Cayman Chemical
T1 sequence (Q99685 1-303): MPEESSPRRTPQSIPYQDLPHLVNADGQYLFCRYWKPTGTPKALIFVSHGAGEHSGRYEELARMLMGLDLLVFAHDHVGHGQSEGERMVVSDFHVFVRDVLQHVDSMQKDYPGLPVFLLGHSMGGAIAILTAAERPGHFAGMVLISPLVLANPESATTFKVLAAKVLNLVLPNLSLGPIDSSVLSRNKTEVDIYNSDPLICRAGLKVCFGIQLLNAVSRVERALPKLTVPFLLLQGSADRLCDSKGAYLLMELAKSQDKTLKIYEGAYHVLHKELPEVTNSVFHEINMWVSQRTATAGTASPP
Description: MAGL-inhibition assay (4-NPA substrate, absorbance 405 nm). The following applies: for MAGL/FAAH selectivity: ratio of FAAH IC50 to MAGL IC50 (fold). It is filed as biochemical. Here is the method: Human recombinant MAGL, and 4-nitrophenylacetate substrate (4-NPA) were from Cayman Chemical. The IC50 values for compounds were generated in 96-well microtiter plates. The MAGL reaction was conducted at RT at a final volume of 200 µL in 10 mM Tris buffer, pH 7.2, containing 1 mM EDTA. A total of 150 µL of 4-NPA 133.3 µM (final concentration = 100 µM) was added to 10 µL of DMSO containing the appropriate amount of compound. The reaction was initiated by the addition of 40 µL of MAGL (11 ng/well) in such a way that the assay was linear over 30 min. […] After the reaction had proceeded for 30 min, absorbance values were then measured by using a VictorX3 PerkinElmer instrument at 405 nm. Two reactions were also run: one reaction containing no compounds and the second one containing neither inhibitor nor enzyme. IC50 values were derived from experimental data using the Sigmoidal dose–response fitting of GraphPad Prism software as reported earlier.

In data set [2] the target is T2, human FAAH (Homo sapiens, UniProt O00519).
T2 sequence (O00519 1-579): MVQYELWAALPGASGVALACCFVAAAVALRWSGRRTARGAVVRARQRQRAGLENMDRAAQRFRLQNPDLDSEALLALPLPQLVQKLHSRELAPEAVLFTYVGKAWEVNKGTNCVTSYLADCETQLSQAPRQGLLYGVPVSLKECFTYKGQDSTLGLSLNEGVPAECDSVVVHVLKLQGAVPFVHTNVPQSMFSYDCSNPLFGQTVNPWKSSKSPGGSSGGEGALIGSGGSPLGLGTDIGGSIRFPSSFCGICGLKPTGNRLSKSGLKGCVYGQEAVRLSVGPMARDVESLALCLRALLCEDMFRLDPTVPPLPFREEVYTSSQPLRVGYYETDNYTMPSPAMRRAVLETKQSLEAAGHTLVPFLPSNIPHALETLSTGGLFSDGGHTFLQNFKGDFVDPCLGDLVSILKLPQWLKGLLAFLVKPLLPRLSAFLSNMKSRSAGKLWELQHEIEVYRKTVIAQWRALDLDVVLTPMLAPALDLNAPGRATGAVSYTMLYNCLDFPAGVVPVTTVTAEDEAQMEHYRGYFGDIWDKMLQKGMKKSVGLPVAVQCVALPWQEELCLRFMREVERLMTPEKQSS
Description: FAAH inhibition assay (AMC arachidonoyl amide, fluorescence). It counts as biochemical. The note with it: AMC arachidonoyl amide 10 µM, 30 min, RT. As for the experimental part:
The IC50 values for compounds were generated in 96-well microtiter plates. The FAAH reaction was conducted at RT at a final volume of 200 µL in 125 mM Tris buffer, pH 9.0, containing 1 mM EDTA. A total of 150 µL of AMC arachidonoyl amide 13.3 µM (final concentration = 10 µM) was added to 10 µL of DMSO containing the appropriate amount of compound. The reaction was initiated by the addition of 40 µL of FAAH (0.9 µg/well) in such a way that the assay was linear over 30 min. After the reaction had proceeded for 30 min, fluorescence values were then measured by using a VictorX3 PerkinElmer instrument at an excitation wavelength of 340 nm and an emission of 460 nm. Two reactions were also run: one reaction containing no compounds and the second one containing neither inhibitor nor enzyme. IC50 values were derived from experimental data using the Sigmoidal dose − response fitting of GraphPad Prism software as reported earlier. To remove possible false-positive results, for each compound concentration, a blank analysis was carried out, and the final fluorescence results were obtained detracting the fluorescence produced by the presence of all the components except FAAH in the same conditions.

Data set [3] has as its system EAE mouse model of multiple sclerosis. Further details: method as in PMID 25298214. The note with it: cited from earlier work.
The mark [4] stands for this setting: human recombinant MAGL, 4-NPA 100 µM, 30 min, RT.

By IC50 is commonly meant the point on the concentration scale where inhibition reaches its midpoint. `COc1nn(-c2ccc(NC(=O)OCc3ccccc3)c(C)c2)c(=O)o1` [CAY10499, reference compound]: the IC50 in data set [1] (setting [4]) is 0.144 ± 0.004 µM; in data set [2], 0.0147 ± 0.0002 µM. The MAGL/FAAH selectivity in data set [1] was determined as 0.1.
For `CC1=N/C(=C\c2ccc(-c3ccccc3)c(-c3ccccc3)c2)C(=O)O1` [Compound 5, (Z)-4-[(1,1′:2′,1′′-Terphenyl)-4′-ylmethylene]-2-methyloxazol-5(4H)-one], in that order: 0.837 ± 0.018 µM, 2.32 ± 0.051 µM and 3.
The matching figures for `CC1=N/C(=C\c2ccc(-c3ccccc3)cc2-c2ccccc2)C(=O)O1` [Compound 7, (Z)-4-[(1,1′:3′,1′′-Terphenyl)-4′-ylmethylene]-2-methyloxazol-5(4H)-one]: 0.546 ± 0.02 µM, 18.2 ± 0.904 µM and 33.
For `CC1=N/C(=C\c2cccc(-c3ccccc3)c2-c2ccccc2)C(=O)O1` [Compound 9, (Z)-4-[(1,1′:2′,1′′-Terphenyl)-3′-ylmethylene]-2-methyloxazol-5(4H)-one], in that order: 2.56 ± 0.172 µM, 20.1 ± 1.44 µM and 8.
Take `CC1=N/C(=C\c2cc(-c3ccccc3)cc(-c3ccccc3)c2)C(=O)O1` [Compound 13, (Z)-4-[(1,1′:3′,1′′-Terphenyl)-5′-ylmethylene]-2-methyloxazol-5(4H)-one]: the IC50 in data set [1] (setting [4]) came out at 0.457 ± 0.01 µM; in data set [2] it was 14.8 ± 1.18 µM. For the same compound, the MAGL/FAAH selectivity in data set [1] came to 32.
The matching figures for `CC1=N/C(=C\c2cc(-c3ccccc3)ccc2-c2ccccc2)C(=O)O1` [Compound 15, (Z)-4-[(1,1′:4′,1′′-Terphenyl)-2′-ylmethylene]-2-methyloxazol-5(4H)-one]: 0.32 ± 0.01 µM, 10.9 ± 0.161 µM and 34.
For `CC1=N/C(=C\c2cc(-c3ccc(F)cc3)ccc2-c2ccc(F)cc2)C(=O)O1` [Compound 20a, (Z)-4-{[4,4′′-Difluoro-(1,1′:4′,1′′-terphenyl)-2′-yl]methylene}-2-methyloxazol-5(4H)-one], in that order: 0.683 ± 0.05 µM, 28 ± 1.31 µM and 41.
As to `CC1=N/C(=C\c2cc(-c3ccc(OC(F)(F)F)cc3)ccc2-c2ccc(OC(F)(F)F)cc2)C(=O)O1` [Compound 20c, (Z)-4-{[4,4′′-Bis(trifluoromethoxy)-(1,1′:4′,1′′-terphenyl)-2′-yl]methylene}-2-methyloxazol-5(4H)-one], the IC50 was 4 to 6 µM in data set [1] (approximate values), 4.19 ± 0.299 µM in data set [1] (setting [4]) and 17.7 ± 1.2 µM in data set [2]. Further, the MAGL/FAAH selectivity in data set [1] turned out to be 4.
The matching figures for `CC1=N/C(=C\c2cc(-c3ccc(C(F)(F)F)cc3)ccc2-c2ccc(C(F)(F)F)cc2)C(=O)O1` [Compound 20d, (Z)-4-{[4,4′′-Bis(trifluoromethyl)-(1,1′:4′,1′′-terphenyl)-2′-yl]methylene}-2-methyloxazol-5(4H)-one]: 4 to 6 µM, 6.76 ± 1.13 µM, 29 ± 1.16 µM and 4.
As to `CC1=N/C(=C\c2cc(-c3cccc(F)c3)ccc2-c2cccc(F)c2)C(=O)O1` [Compound 20e, (Z)-4-{[3,3′′-Difluoro-(1,1′:4′,1′′-terphenyl)-2′-yl]methylene}-2-methyloxazol-5(4H)-one], the IC50 in data set [1] (setting [4]) amounted to 0.628 ± 0.032 µM; in data set [2], 11.7 ± 0.895 µM. Moreover, in data set [1], the MAGL/FAAH selectivity worked out at 19.
For `CC1=N/C(=C\c2cc(-c3ccc4c(c3)OCO4)ccc2-c2ccc3c(c2)OCO3)C(=O)O1` [Compound 20f, (Z)-4–[2,5-Bis(benzo[d][1,3]dioxol-5-yl)benzylidene]-2-methyloxazol-5(4H)-one], in that order: 0.673 ± 0.023 µM, 23.7 ± 1.35 µM and 35.
For `COc1ccc(-c2ccc(-c3ccc(OC)c(F)c3)c(/C=C3\N=C(C)OC3=O)c2)cc1F` [Compound 20g, (Z)-4-{[3,3′′-Difluoro-4,4′′-dimethoxy-(1,1′:4′,1′′-terphenyl)-2′-yl]methylene}-2-methyloxazol-5(4H)-one], in that order: 0.335 ± 0.002 µM, 22.3 ± 1.24 µM and 67.
Turning to `CC1=N/C(=C\c2cc(-c3ccc(Cl)cc3)ccc2-c2ccc(Cl)cc2)C(=O)O1` [Compound 20h, (Z)-4-{[4,4′′-Dichloro-(1,1′:4′,1′′-terphenyl)-2′-yl]methylene}-2-methyloxazol-5(4H)-one], the results for the 50% inhibitory concentration (IC50) in data set [1] (setting [4]) and in data set [2] were 0.476 ± 0.039 µM and 11.5 ± 0.998 µM, respectively. Moreover, the MAGL/FAAH selectivity in data set [1] is given as 24.
Take `O=C(Oc1ccc([N+](=O)[O-])cc1)N1CCC(C(O)(c2ccc3c(c2)OCO3)c2ccc3c(c2)OCO3)CC1` [JZL-184, reference compound]: in data set [2], 3.3 ± 0.205 µM corresponded to half-maximal inhibition (IC50).
For the compound `O=C(CCCCCc1ccc(-c2ccccc2)cc1)OCc1ccc2c(c1)OCO2` [c21], in data set [3] (mouse), the “Catalepsy or other motor impairments” value is reported as “not accompanied by catalepsy or other motor impairments”. The “Effect on clinical progression in EAE mouse model” value in data set [3] (multiple sclerosis mouse model) was “ameliorated the clinical progression”.

The values above are taken from PMC6009861, “Development of terphenyl-2-methyloxazol-5(4H)-one derivatives as selective reversible MAGL inhibitors” (Journal of Enzyme Inhibition and Medicinal Chemistry, 2017).
